From the NIST ThermoML archive (doi:10.1016/j.jct.2016.03.034)

Assay: xn = mol fraction of the nth substance listed
Conditions: 100 kPa, Liquid; for viscosity: Capillary tube (Ostwald / Ubbelohde) method; for mass density: Vibrating tube method

O=C1CCCO1 [γ-butyrolactone] + CCCCCCCCn1cc[n+](C)c1.O=S(=O)([N-]S(=O)(=O)C(F)(F)F)C(F)(F)F
Conditions | mass density [kg/m3] | viscosity [mPa·s]
293.15 K, x2 = 0 | 1129.49 | 1.86
293.15 K, x2 = 0.0486 | 1168.04 | 2.77
293.15 K, x2 = 0.1001 | 1197.81 | 4
293.15 K, x2 = 0.1497 | 1219.5 | 5.49
293.15 K, x2 = 0.2006 | 1237.06 | 7.48
293.15 K, x2 = 0.3037 | 1262.89 | 12.83
293.15 K, x2 = 0.394 | 1278.72 | –
293.15 K, x2 = 0.4952 | 1292.01 | 29.29
293.15 K, x2 = 0.586 | 1300.99 | –
293.15 K, x2 = 0.7007 | 1309.94 | 54.57
293.15 K, x2 = 0.8081 | 1316.42 | –
293.15 K, x2 = 0.9003 | 1321 | 87.86
298.15 K, x2 = 0 | 1124.59 | 1.71
298.15 K, x2 = 0.0486 | 1163.25 | 2.53
298.15 K, x2 = 0.1001 | 1193.1 | 3.64
298.15 K, x2 = 0.1497 | 1214.96 | 4.9
298.15 K, x2 = 0.2006 | 1232.47 | 6.56
298.15 K, x2 = 0.3037 | 1258.37 | 10.89
298.15 K, x2 = 0.394 | 1274.26 | –
298.15 K, x2 = 0.4952 | 1287.58 | 23.62
298.15 K, x2 = 0.586 | 1296.61 | –
298.15 K, x2 = 0.7007 | 1305.54 | 42.86
298.15 K, x2 = 0.8081 | 1312.07 | –
298.15 K, x2 = 0.9003 | 1316.57 | 68
303.15 K, x2 = 0 | 1119.68 | 1.58
303.15 K, x2 = 0.0486 | 1158.47 | 2.31
303.15 K, x2 = 0.1001 | 1188.35 | 3.26
303.15 K, x2 = 0.1497 | 1210.25 | 4.41
303.15 K, x2 = 0.2006 | 1227.82 | 5.8
303.15 K, x2 = 0.3037 | 1253.81 | 9.44
303.15 K, x2 = 0.394 | 1269.73 | –
303.15 K, x2 = 0.4952 | 1283.09 | 19.3
303.15 K, x2 = 0.586 | 1292.14 | –
303.15 K, x2 = 0.7007 | 1301.1 | 34.7
303.15 K, x2 = 0.8081 | 1307.63 | –
303.15 K, x2 = 0.9003 | 1312.16 | 53.86
308.15 K, x2 = 0 | 1114.78 | 1.47
308.15 K, x2 = 0.0486 | 1153.69 | 2.12
308.15 K, x2 = 0.1001 | 1183.64 | 2.96
308.15 K, x2 = 0.1497 | 1205.57 | 3.97
308.15 K, x2 = 0.2006 | 1223.18 | 5.15
308.15 K, x2 = 0.3037 | 1249.22 | 8.26
308.15 K, x2 = 0.394 | 1265.2 | –
308.15 K, x2 = 0.4952 | 1278.6 | 16.57
308.15 K, x2 = 0.586 | 1287.67 | –
308.15 K, x2 = 0.7007 | 1296.66 | 28.87
308.15 K, x2 = 0.8081 | 1303.22 | –
308.15 K, x2 = 0.9003 | 1307.76 | 43.53
313.15 K, x2 = 0 | 1109.87 | 1.37
313.15 K, x2 = 0.0486 | 1148.89 | 1.96
313.15 K, x2 = 0.1001 | 1178.93 | 2.72
313.15 K, x2 = 0.1497 | 1200.87 | 3.61
313.15 K, x2 = 0.2006 | 1218.54 | 4.62
313.15 K, x2 = 0.3037 | 1244.66 | 7.27
313.15 K, x2 = 0.394 | 1260.67 | –
313.15 K, x2 = 0.4952 | 1274.11 | 13.95
313.15 K, x2 = 0.586 | 1283.2 | –
313.15 K, x2 = 0.7007 | 1292.22 | 23.79
313.15 K, x2 = 0.8081 | 1298.8 | –
313.15 K, x2 = 0.9003 | 1303.36 | 35.68
318.15 K, x2 = 0 | 1104.96 | 1.28
318.15 K, x2 = 0.0486 | 1144.1 | 1.82
318.15 K, x2 = 0.1001 | 1174.21 | 2.49
318.15 K, x2 = 0.1497 | 1196.2 | 3.23
318.15 K, x2 = 0.2006 | 1213.93 | 4.17
318.15 K, x2 = 0.3037 | 1240.09 | 6.47
318.15 K, x2 = 0.394 | 1256.15 | –
318.15 K, x2 = 0.4952 | 1269.61 | 12
318.15 K, x2 = 0.586 | 1278.74 | –
318.15 K, x2 = 0.7007 | 1287.82 | 19.85
318.15 K, x2 = 0.8081 | 1294.4 | –
318.15 K, x2 = 0.9003 | 1298.97 | 29.79
323.15 K, x2 = 0 | 1100.05 | 1.2
323.15 K, x2 = 0.0486 | 1139.34 | 1.69
323.15 K, x2 = 0.1001 | 1169.52 | 2.29
323.15 K, x2 = 0.1497 | 1191.56 | 2.95
323.15 K, x2 = 0.2006 | 1209.34 | 3.78
323.15 K, x2 = 0.3037 | 1235.56 | 5.8
323.15 K, x2 = 0.394 | 1251.63 | –
323.15 K, x2 = 0.4952 | 1265.15 | 10.5
323.15 K, x2 = 0.586 | 1274.3 | –
323.15 K, x2 = 0.7007 | 1283.4 | 16.69
323.15 K, x2 = 0.8081 | 1290.01 | –
323.15 K, x2 = 0.9003 | 1294.6 | 25.43

O=C1CCCO1 [γ-butyrolactone] + CCCCCC[n+]1ccn(C)c1.O=S(=O)([N-]S(=O)(=O)C(F)(F)F)C(F)(F)F
Conditions | mass density [kg/m3] | viscosity [mPa·s]
293.15 K, x2 = 0 | 1129.49 | 1.86
293.15 K, x2 = 0.0507 | 1176 | 2.63
293.15 K, x2 = 0.0999 | 1209.89 | 3.68
293.15 K, x2 = 0.1544 | 1238.99 | 5.32
293.15 K, x2 = 0.1999 | 1258.54 | 6.49
293.15 K, x2 = 0.3004 | 1291.11 | 10.57
293.15 K, x2 = 0.404 | 1314.91 | –
293.15 K, x2 = 0.5044 | 1332.2 | 23.96
293.15 K, x2 = 0.596 | 1344.4 | –
293.15 K, x2 = 0.7027 | 1355.85 | 44.32
293.15 K, x2 = 0.8182 | 1365.51 | –
293.15 K, x2 = 0.8924 | 1370.62 | 70.24
298.15 K, x2 = 0 | 1124.59 | 1.71
298.15 K, x2 = 0.0507 | 1171.09 | 2.43
298.15 K, x2 = 0.0999 | 1204.99 | 3.32
298.15 K, x2 = 0.1544 | 1234.06 | 4.67
298.15 K, x2 = 0.1999 | 1253.61 | 5.73
298.15 K, x2 = 0.3004 | 1286.27 | 9.16
298.15 K, x2 = 0.404 | 1310.08 | –
298.15 K, x2 = 0.5044 | 1327.28 | 19.96
298.15 K, x2 = 0.596 | 1339.47 | –
298.15 K, x2 = 0.7027 | 1350.79 | 35.8
298.15 K, x2 = 0.8182 | 1360.52 | –
298.15 K, x2 = 0.8924 | 1365.62 | 55.4
303.15 K, x2 = 0 | 1119.68 | 1.58
303.15 K, x2 = 0.0507 | 1166.32 | 2.18
303.15 K, x2 = 0.0999 | 1200.4 | 3
303.15 K, x2 = 0.1544 | 1229.53 | 4.08
303.15 K, x2 = 0.1999 | 1249.21 | 5.07
303.15 K, x2 = 0.3004 | 1281.91 | 7.91
303.15 K, x2 = 0.404 | 1305.79 | –
303.15 K, x2 = 0.5044 | 1323.05 | 16.88
303.15 K, x2 = 0.596 | 1335.25 | –
303.15 K, x2 = 0.7027 | 1346.64 | 29.15
303.15 K, x2 = 0.8182 | 1356.39 | –
303.15 K, x2 = 0.8924 | 1361.5 | 44.29
308.15 K, x2 = 0 | 1114.78 | 1.47
308.15 K, x2 = 0.0507 | 1161.53 | 1.97
308.15 K, x2 = 0.0999 | 1195.65 | 2.74
308.15 K, x2 = 0.1544 | 1224.8 | 3.69
308.15 K, x2 = 0.1999 | 1244.56 | 4.55
308.15 K, x2 = 0.3004 | 1277.26 | 7
308.15 K, x2 = 0.404 | 1301.16 | –
308.15 K, x2 = 0.5044 | 1318.46 | 14.47
308.15 K, x2 = 0.596 | 1330.67 | –
308.15 K, x2 = 0.7027 | 1342.09 | 25.57
308.15 K, x2 = 0.8182 | 1351.83 | –
308.15 K, x2 = 0.8924 | 1356.94 | 36.71
313.15 K, x2 = 0 | 1109.87 | 1.37
313.15 K, x2 = 0.0507 | 1156.54 | 1.84
313.15 K, x2 = 0.0999 | 1190.58 | 2.52
313.15 K, x2 = 0.1544 | 1219.69 | 3.34
313.15 K, x2 = 0.1999 | 1239.41 | 4.11
313.15 K, x2 = 0.3004 | 1272 | 6.23
313.15 K, x2 = 0.404 | 1295.78 | –
313.15 K, x2 = 0.5044 | 1313.05 | 12.29
313.15 K, x2 = 0.596 | 1325.23 | –
313.15 K, x2 = 0.7027 | 1336.62 | 20.49
313.15 K, x2 = 0.8182 | 1346.3 | –
313.15 K, x2 = 0.8924 | 1351.37 | 30.2
318.15 K, x2 = 0 | 1104.96 | 1.28
318.15 K, x2 = 0.0507 | 1151.65 | 1.7
318.15 K, x2 = 0.0999 | 1185.71 | 2.31
318.15 K, x2 = 0.1544 | 1214.89 | 3.03
318.15 K, x2 = 0.1999 | 1234.59 | 3.7
318.15 K, x2 = 0.3004 | 1267.16 | 5.72
318.15 K, x2 = 0.404 | 1290.94 | –
318.15 K, x2 = 0.5044 | 1308.19 | 10.74
318.15 K, x2 = 0.596 | 1320.36 | –
318.15 K, x2 = 0.7027 | 1331.75 | 17.5
318.15 K, x2 = 0.8182 | 1341.42 | –
318.15 K, x2 = 0.8924 | 1346.5 | 25.41
323.15 K, x2 = 0 | 1100.05 | 1.2
323.15 K, x2 = 0.0507 | 1147.03 | 1.58
323.15 K, x2 = 0.0999 | 1181.36 | 2.14
323.15 K, x2 = 0.1544 | 1210.78 | 2.69
323.15 K, x2 = 0.1999 | 1230.51 | 3.38
323.15 K, x2 = 0.3004 | 1263.32 | 5.21
323.15 K, x2 = 0.404 | 1287.31 | –
323.15 K, x2 = 0.5044 | 1304.67 | 9.36
323.15 K, x2 = 0.596 | 1316.95 | –
323.15 K, x2 = 0.7027 | 1328.43 | 15
323.15 K, x2 = 0.8182 | 1338.19 | –
323.15 K, x2 = 0.8924 | 1343.3 | 21.39
